Experimental data: patent US20240050577A1, “CDK INHIBITORS AND PHARMACEUTICAL USES THEREOF” (RISEN (SUZHOU) PHARMA TECH CO., LTD., priority 2022, published 2024)
Like-named read-outs stand apart in the source and are kept apart here.

Tested on: OVCAR3 cells
Assay: Cell proliferation study (Cell Titer Glo, 72 h)
Format: cell-based
Conditions: read-out: IC50, inhibitory effect on cellular proliferation
Description: OVCAR3 (Cobioer, CBP60294) cell line in logarithmic growth phase was used for these experiments. The cell density was adjusted to 1.1×10^4/mL and the cells were inoculated into a 96-well cell culture plate (Corning, 3599), 95 μL per well (the number of cells per well was 1×10^3). The culture plate was placed in an incubator, with 5% carbon dioxide, at 37° C. and incubated overnight. On the next day, a 10 mM stock solution of test compound was prepared in DMSO (Sigma, RNBF5902). After gradient dilution, a series of working solutions with different concentrations of test compound was prepared using complete medium. Working solution was added into the corresponding wells of the orifice plate, and the plate was placed in a 5% carbon dioxide incubator and cultivated at 37° C. for 72 h, and then removed from the incubator. To each well was added 50 μL Cell Tier Glo (Promega, G7573), and the plate was incubated at room temperature for 10 min, followed by luminescence detection with an enzyme marker. The inhibition curve was obtained with GraphPad 7.0 software using four-parameter equation.

[1] = Homo sapiens, OVCAR-3, luminescence

Compound	IC50 [1] [µM]	IC50 (luminescence) [µM]
Cc1nc2c(F)cc(-c3nc(Nc4ccc(NS(=O)(=O)CCNC(=O)CO[C@@H]5C[C@H](C)CC[C@H]5C(C)C)cc4)ncc3F)cc2n1C(C)C (racemic) [Compound 26]	1 to 5	–
CC(C)N1CCOc2c(F)cc(-c3nc(Nc4ccc(C5CCN(CCCCCCCCCOc6cccc7c6C(=O)N(C6CCC(=O)NC6=O)C7=O)CC5)cn4)ncc3F)cc21 (centres unmarked) [Compound 1]	> 10	–
CC(C)N1CCOc2c(F)cc(-c3nc(Nc4ccc(C5CCN(CCOCCOCCNc6cccc7c6C(=O)N(C6CCC(=O)NC6=O)C7=O)CC5)cn4)ncc3F)cc21 (centres unmarked) [Compound 2]	> 10	–
CC(C)N1CCOc2c(F)cc(-c3nc(Nc4ccc(C5CCN(CCCCCCOc6cccc7c6C(=O)N(C6CCC(=O)NC6=O)C7=O)CC5)cn4)ncc3F)cc21 (centres unmarked) [Compound 3]	–	> 10
CC(C)N1CCOc2c(F)cc(-c3nc(Nc4ccc(C5CCN(CCOCCOCCOCCNc6cccc7c6C(=O)N(C6CCC(=O)NC6=O)C7=O)CC5)cn4)ncc3F)cc21 (centres unmarked) [Compound 6]	1 to 5	–
CC(C)N1CCOc2c(F)cc(-c3nc(Nc4ccc(C5CCN(C(=O)CCCCCCCCOc6cccc7c6C(=O)N(C6CCC(=O)NC6=O)C7=O)CC5)cn4)ncc3F)cc21 (centres unmarked) [Compound 7]	> 10	–
CC(C)N1CCOc2c(F)cc(-c3nc(NC4CCN(S(=O)(=O)C5CCN(CC6CCN(c7ccc8c(c7)C(=O)N(C7CCC(=O)NC7=O)C8=O)CC6)CC5)CC4)ncc3F)cc21 (centres unmarked) [Compound 19, 2-(2,6-dioxo-3-piperidyl)-5-[4-[[4-[[4-[[5-fluoro-4-(8-fluoro-4-isopropyl-2,3-dihydro-1,4-benzoxazin-6-yl)pyrimidin-2-yl]amino]-1-piperidyl]sulfonyl]-1-piperidyl]methyl]-1-piperidyl]isoindoline-1,3-dione]	0.101 to 1	–
CC(C)N1CCOc2c(F)cc(-c3nc(Nc4ccc(S(=O)(=O)NCCOCc5cn(CCOCCOCCNc6cc7c(cc6F)C(=O)N(C6CCC(=O)NC6=O)C7=O)nn5)cc4)ncc3F)cc21 (centres unmarked) [Compound 21, N-[2-[[1-[2-[2-[2-[[2-(2,6-dioxo-3-piperidyl)-6-fluoro-1,3-dioxo-isoindolin-5-yl]amino]ethoxy]ethoxy]ethyl]triazol-4-yl]methoxy]ethyl]-4-[[5-fluoro-4-(8-fluoro-4-isopropyl-2,3-dihydro-1,4-benzoxazin-6-yl)pyrimidin-2-yl]amino]benzenesulfonamide]	1 to 5	–
C[C@@]1(O)CCC[C@H]1n1c(=O)ccc2cnc(Nc3ccc(S(=O)(=O)C4CCN(C5CC6(CCN(c7cc8c(cc7F)C(=O)N(C7CCC(=O)NC7=O)C8=O)CC6)C5)CC4)cc3)nc21 (some centres unmarked) [Compound 22]	> 10	–
C[C@@]1(O)CCC[C@H]1n1c(=O)ccc2cnc(Nc3ccc(S(=O)(=O)C4CCN(CC5CCN(c6cc7c(cc6F)C(=O)N(C6CCC(=O)NC6=O)C7=O)CC5)CC4)cc3)nc21 (some centres unmarked) [Compound 23]	> 10	–
CC(C)[C@@H]1CC[C@@H](C)C[C@H]1OCC(=O)NCCS(=O)(=O)N1CCC(Nc2ncc(F)c(-c3cc(F)c4c(c3)N(C(C)C)CCO4)n2)CC1 [Compound 27]	> 10	–
CC(C)N1CCOc2c(F)cc(-c3nc(Nc4ccc(C5CCN(CCCCCCOc6cccc7c6C(=O)N(C6CCC(=O)NC6=O)C7=O)CC5)cn4)ncc3F)cc21 (centres unmarked) [Compound 28]	> 10	–
Cc1ccsc1C(=O)n1nc(Nc2ccc(S(=O)(=O)NCCOCc3cn(CCOCCOCCNc4cccc5c4C(=O)N(C4CCC(=O)NC4=O)C5=O)nn3)cc2)nc1N (centres unmarked) [Compound 32]	> 10	–
C[C@@]1(O)CCC[C@H]1n1c(=O)c(Cl)cc2cnc(NC3CCN(S(=O)(=O)C4CCN(C5CC6(CCN(c7cc8c(cc7F)C(=O)N(C7CCC(=O)NC7=O)C8=O)CC6)C5)CC4)CC3)nc21 (some centres unmarked) [Compound 34]	> 10	–
C[C@@]1(O)CCC[C@H]1n1c(=O)c(C(F)F)cc2cnc(NC3CCN(S(=O)(=O)C4CCN(C5CC6(CCN(c7cc8c(cc7F)C(=O)N(C7CCC(=O)NC7=O)C8=O)CC6)C5)CC4)CC3)nc21 (some centres unmarked) [Compound 35]	0.101 to 1	–
C[C@@]1(O)CCC[C@H]1n1c(=O)ccc2cnc(NC3CCN(S(=O)(=O)C4CCN(C(=O)C56CC(NCC7CCN(c8cc9c(cc8F)C(=O)N(C8CCC(=O)NC8=O)C9=O)CC7)(C5)C6)CC4)CC3)nc21 (some centres unmarked) [Compound 36]	0.101 to 1	–
C[C@@]1(O)CCC[C@H]1n1c(=O)ccc2cnc(Nc3ccc(S(=O)(=O)C4CCN(CC5CCN(c6cccc7c6C(=O)N(C6CCC(=O)NC6=O)C7=O)CC5)CC4)cc3)nc21 (some centres unmarked) [Compound 44]	> 10	–
Cc1nc2c(F)cc(-c3nc(Nc4ccc(S(=O)(=O)NCCOCCOCCNc5cccc6c5C(=O)N(C5CCC(=O)NC5=O)C6=O)cc4)ncc3F)cc2n1C(C)C (centres unmarked) [Compound 49]	1 to 5	–
Cc1nc2c(F)cc(-c3nc(Nc4ccc(S(=O)(=O)NCCOCc5cn(CCOCCOCCNc6cccc7c6C(=O)N(C6CCC(=O)NC6=O)C7=O)nn5)cc4)ncc3F)cc2n1C(C)C (centres unmarked) [Compound 50]	1 to 5	–
CC(C)N1CCOc2c(F)cc(-c3nc(NC4CCN(S(=O)(=O)C5CCN(C6CC7(CCN(c8cc9c(cc8F)C(=O)N(C8CCC(=O)NC8=O)C9=O)CC7)C6)CC5)CC4)ncc3F)cc21 (centres unmarked) [Compound 51]	> 10	–
CC(C)N1CCOc2c(F)cc(-c3nc(Nc4ccc(S(=O)(=O)N5CCN(C6CN(C7CCN(c8cccc9c8C(=O)N(C8CCC(=O)NC8=O)C9=O)CC7)C6)CC5)cc4)ncc3F)cc21 (centres unmarked) [Compound 52]	1 to 5	–
CC(C)N1CCOc2c(F)cc(-c3nc(Nc4ccc(S(=O)(=O)N5CCN(C(=O)C6CCN(c7cccc8c7C(=O)N(C7CCC(=O)NC7=O)C8=O)CC6)CC5)cc4)ncc3F)cc21 (centres unmarked) [Compound 53]	> 10	–
CC(C)N1CCOc2c(F)cc(-c3nc(Nc4ccc(S(=O)(=O)N5CCN(CC6CCN(c7cccc8c7C(=O)N(C7CCC(=O)NC7=O)C8=O)CC6)CC5)cc4)ncc3F)cc21 (centres unmarked) [Compound 54]	> 10	–
CC(C)N1CCOc2c(F)cc(-c3nc(Nc4ccc(S(=O)(=O)N5CCN(C6CCN(C7CN(c8cccc9c8C(=O)N(C8CCC(=O)NC8=O)C9=O)C7)CC6)CC5)cc4)ncc3F)cc21 (centres unmarked) [Compound 55]	> 10	–
Cc1nc2c(F)cc(-c3nc(Nc4ccc(S(=O)(=O)N5CCN(C6CCN(C7CN(c8cccc9c8C(=O)N(C8CCC(=O)NC8=O)C9=O)C7)CC6)CC5)cc4)ncc3F)cc2n1C(C)C (centres unmarked) [Compound 56]	1 to 5	–
Cc1nc2c(F)cc(-c3nc(Nc4ccc(S(=O)(=O)N5CCN(CC6CCN(c7cccc8c7C(=O)N(C7CCC(=O)NC7=O)C8=O)CC6)CC5)cc4)ncc3F)cc2n1C(C)C (centres unmarked) [Compound 57]	0.101 to 1	–

Other lines, results leading:

IC50 [1] [µM]	IC50 (luminescence) [µM]	Compound
< 0.1	–	CC(C)N1CCOc2c(F)cc(-c3nc(Nc4ccc(C5CCN(C(=O)COCCOCCNc6cccc7c6C(=O)N(C6CCC(=O)NC6=O)C7=O)CC5)cn4)ncc3F)cc21 (centres unmarked) [Compound 5]
> 10	–	CC(C)N1CCOc2c(F)cc(-c3nc(Nc4ccc(C5CCN(C6CC7(CCN(c8cc9c(cc8F)C(=O)N(C8CCC(=O)NC8=O)C9=O)CC7)C6)CC5)cn4)ncc3F)cc21 (centres unmarked) [Compound 18, 2-(2,6-dioxo-3-piperidyl)-5-fluoro-6-[2-[4-[6-[[5-fluoro-4-(8-fluoro-4-isopropyl-2,3-dihydro-1,4-benzoxazin-6-yl)pyrimidin-2-yl]amino]-3-pyridyl]-1-piperidyl]-7-azaspiro[3.5]nonan-7-yl]isoindoline-1,3-dione]
> 10	–	CC(C)N1CCOc2c(F)cc(-c3nc(Nc4ccc(S(=O)(=O)NCCOCc5cn(CCOCCOCCNc6cccc7c6C(=O)N(C6CCC(=O)NC6=O)C7=O)nn5)cc4)ncc3F)cc21 (centres unmarked) [Compound 20, N-[2-[[1-[2-[2-[2-[[2-(2,6-dioxo-3-piperidyl)-1,3-dioxo-isoindolin-4-yl]amino]ethoxy]ethoxy]ethyl]triazol-4-yl]methoxy]ethyl]-4-[[5-fluoro-4-(8-fluoro-4-isopropyl-2,3-dihydro-1,4-benzoxazin-6-yl)pyrimidin-2-yl]amino]benzenesulfonamide]
0.101 to 1	–	CC(C)N1CCOc2c(F)cc(-c3nc(Nc4ccc(C5CCN(CCCCNC(=O)COc6cccc7c6C(=O)N(C6CCC(=O)NC6=O)C7=O)CC5)nc4)ncc3F)cc21 (centres unmarked) [Compound 30]
0.101 to 1	–	CC(C)N1CCOc2c(F)cc(-c3nc(Nc4ccc(S(N)(=O)=O)cc4)ncc3F)cc21 [Compound 31]
> 10	–	CC(C)N1CCOc2c(F)cc(-c3nc(Nc4ccc(S(=O)(=O)N5CCN(CC6CCN(c7ccc8c(c7)C(=O)N(C7CCC(=O)NC7=O)C8=O)CC6)CC5)cc4)ncc3F)cc21 (centres unmarked) [Compound 33]
1 to 5	–	Cc1nc2c(F)cc(-c3nc(Nc4ccc(S(=O)(=O)N5CCC6(CCN(C(=O)COc7cccc8c7C(=O)N(C7CCC(=O)NC7=O)C8=O)CC6)CC5)cc4)ncc3F)cc2n1C(C)C (centres unmarked) [Compound 39]
> 10	–	Cc1nc2c(F)cc(-c3nc(Nc4ccc(S(=O)(=O)N5CC(C(=O)N6CCC7(CC6)CCN(c6cccc8c6C(=O)N(C6CCC(=O)NC6=O)C8=O)CC7)C5)cc4)ncc3F)cc2n1C(C)C (centres unmarked) [Compound 40]
> 10	–	C[C@@]1(O)CCC[C@H]1n1c(=O)ccc2cnc(Nc3ccc(S(=O)(=O)C4CCN(C5CCC6(CC5)CN(c5cc7c(cc5F)C(=O)N(C5CCC(=O)NC5=O)C7=O)C6)CC4)cc3)nc21 (some centres unmarked) [Compound 45]
0.101 to 1	–	Cc1nc2c(F)cc(-c3nc(Nc4ccc(S(=O)(=O)C5CCN(C6CC7(CCN(c8cc9c(cc8F)C(=O)N(C8CCC(=O)NC8=O)C9=O)CC7)C6)CC5)cc4)ncc3F)cc2n1C(C)C (centres unmarked) [Compound 46]
1 to 5	–	Cc1nc2c(F)cc(-c3nc(Nc4ccc(S(=O)(=O)NCCOCCNc5cccc6c5C(=O)N(C5CCC(=O)NC5=O)C6=O)cc4)ncc3F)cc2n1C(C)C (centres unmarked) [Compound 47]
1 to 5	–	Cc1nc2c(F)cc(-c3nc(Nc4ccc(S(=O)(=O)NCCOCCOCCOCCNc5cccc6c5C(=O)N(C5CCC(=O)NC5=O)C6=O)cc4)ncc3F)cc2n1C(C)C (centres unmarked) [Compound 48]
